# Measurements reported in paper PMC12638379, “An innovative approach to development of new pyrazolylquinolin-2-one hybrids as dual EGFR and BRAF^V600E inhibitors” (Molecular Diversity, 2025).
# Like-named read-outs stand apart in the source and are kept apart here.
# Tested on: NCI 60 cancer cell lines
# Assay: NCI anticancer screening over a panel of 60 cancer cells, single concentration 10 µM
# Format: cell-based, human
# Conditions: Homo sapiens, read-out: % Growth Inhibition (GI %)
# Summary of the method: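 Run under the NCI Compound Evaluation Branch protocol, each compound was tested once at 10 µM. The panel comprised 60 cancer cell lines of diverse tissue origin, including leukemia, lung, colon, CNS, renal, ovarian, breast and prostate.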
smiles,measurement,setting,value
"C/C(=N\Nc1ccc(C(=O)O)cc1)c1cnn(-c2cc(=O)[nH]c3ccc(Cl)cc23)c1C [Compound 4i, (E)-4-(2-(1-(1-(6-chloro-2-oxo-1,2-dihydroquinolin-4-yl)-5-methyl-1H-pyrazol-4-yl)ethylidene)hydrazineyl)benzoic acid]",inhibition at 10 µM,"786-0, Renal cancer 786-0, 10 μM",< 5%
same,inhibition at 10 µM,"A498, Renal cancer A498, 10 μM",< 5%
same,inhibition at 10 µM,"A549, Non-small cell lung cancer A549/ATCC, 10 μM",< 5%
same,inhibition at 10 µM,"ACHN, Renal cancer ACHN, 10 μM",< 5%
same,inhibition at 10 µM,"BT-549, Breast cancer BT-549, 10 μM",< 5%
same,inhibition at 10 µM,"CAKI-1, Renal cancer CAKI-1, 10 μM",10.8%
same,inhibition at 10 µM,"CCRF-CEM, Leukemia CCRF-CEM, 10 μM",< 5%
same,inhibition at 10 µM,"COLO 205, Colon cancer COLO 205, 10 μM",< 5%
same,inhibition at 10 µM,"DU-145, Prostate cancer DU-145, 10 μM",< 5%
same,inhibition at 10 µM,"EKVX, Non-small cell lung cancer EKVX, 10 μM",< 5%
same,inhibition at 10 µM,"HCC 2998, Colon cancer HCC-2998, 10 μM",< 5%
same,inhibition at 10 µM,"HCT-15, Colon cancer HCT-15, 10 μM",< 5%
same,inhibition at 10 µM,"HCT-116, Colon cancer HCT-116, 10 μM",< 5%
same,inhibition at 10 µM,"HL-60, Leukemia HL-60(TB), 10 μM",5.88%
same,inhibition at 10 µM,"HOP-62, Non-small cell lung cancer HOP-62, 10 μM",< 5%
same,inhibition at 10 µM,"HOP-92, Non-small cell lung cancer HOP-92, 10 μM",36.7%
same,inhibition at 10 µM,"HT-29, Colon cancer HT29, 10 μM",< 5%
same,inhibition at 10 µM,"Hs-578T, Breast cancer HS 578T, 10 μM",6.25%
same,inhibition at 10 µM,"IGROV-1, Ovarian cancer IGROV1, 10 μM",< 5%
same,inhibition at 10 µM,"K562, Leukemia K-562, 10 μM",7.48%
same,inhibition at 10 µM,"KM12, Colon cancer KM12, 10 μM",< 5%
same,inhibition at 10 µM,"LOX IMVI, Melanoma LOX IMVI, 10 μM",< 5%
same,inhibition at 10 µM,"Leukemia SR, 10 μM",< 5%
same,inhibition at 10 µM,"MCF7, Breast cancer MCF7, 10 μM",8.38%
same,inhibition at 10 µM,"MDA-MB-231, Breast cancer MDA-MB-231/ATCC, 10 μM",12.9%
same,inhibition at 10 µM,"MDA-MB-435, Melanoma MDA-MB-435, 10 μM",< 5%
same,inhibition at 10 µM,"MDA-MB-468, Breast cancer MDA-MB-468, 10 μM",< 5%
same,inhibition at 10 µM,"MOLT-4, Leukemia MOLT-4, 10 μM",< 5%
same,inhibition at 10 µM,"Melanoma M14, 10 μM",< 5%
same,inhibition at 10 µM,"Melanoma MALM-3M, 10 μM",19.4%
same,inhibition at 10 µM,"NCI-H23, Non-small cell lung cancer NCI-H23, 10 μM",< 5%
same,inhibition at 10 µM,"NCI-H226, Non-small cell lung cancer NCI-H226, 10 μM",< 5%
same,inhibition at 10 µM,"NCI-H322M, Non-small cell lung cancer NCI-H322M, 10 μM",< 5%
same,inhibition at 10 µM,"NCI-H460, Non-small cell lung cancer NCI-H460, 10 μM",< 5%
same,inhibition at 10 µM,"NCI-H522, Non-small cell lung cancer NCI-H522, 10 μM",< 5%
same,inhibition at 10 µM,"NCI/ADR-RES, Ovarian cancer NCI/ADR-RES, 10 μM",< 5%
same,inhibition at 10 µM,"OVCAR-3, Ovarian cancer OVCAR-3, 10 μM",< 5%
same,inhibition at 10 µM,"OVCAR-4, Ovarian cancer OVCAR-4, 10 μM",< 5%
same,inhibition at 10 µM,"OVCAR-5, Ovarian cancer OVCAR-5, 10 μM",< 5%
same,inhibition at 10 µM,"OVCAR-8, Ovarian cancer OVCAR-8, 10 μM",< 5%
same,inhibition at 10 µM,"Prostate cancer PC-3, 10 μM",< 5%
same,inhibition at 10 µM,"RPMI-8226, Leukemia RPMI-8226, 10 μM",< 5%
same,inhibition at 10 µM,"RXF 393, Renal cancer RXF 393, 10 μM",< 5%
same,inhibition at 10 µM,"SF-268, CNS Cancer SF-268, 10 μM",< 5%
same,inhibition at 10 µM,"SF-295, CNS Cancer SF-295, 10 μM",< 5%
same,inhibition at 10 µM,"SF-539, CNS Cancer SF-539, 10 μM",< 5%
same,inhibition at 10 µM,"SK-MEL-2, Melanoma SK-MEL-2, 10 μM",< 5%
same,inhibition at 10 µM,"SK-MEL-5, Melanoma SK-MEL-5, 10 μM",< 5%
same,inhibition at 10 µM,"SK-MEL-28, Melanoma SK-MEL-28, 10 μM",< 5%
same,inhibition at 10 µM,"SK-OV-3, Ovarian cancer SK-OV-3, 10 μM",5.11%
same,inhibition at 10 µM,"SN12C, Renal cancer SN12C, 10 μM",< 5%
same,inhibition at 10 µM,"SNB-19, CNS Cancer SNB-19, 10 μM",< 5%
same,inhibition at 10 µM,"SNB-75, CNS Cancer SNB-75, 10 μM",5.56%
same,inhibition at 10 µM,"SW-620, Colon cancer SW-620, 10 μM",< 5%
same,inhibition at 10 µM,"T47D, Breast cancer T-47D, 10 μM",6.23%
same,inhibition at 10 µM,"TK-10, Renal cancer TK-10, 10 μM",< 5%
same,inhibition at 10 µM,"U-251, CNS Cancer U251, 10 μM",< 5%
same,inhibition at 10 µM,"UACC-62, Melanoma UACC-62, 10 μM",6.04%
same,inhibition at 10 µM,"UACC-257, Melanoma UACC-257, 10 μM",< 5%
same,inhibition at 10 µM,"UO-31, Renal cancer UO-31, 10 μM",29.1%
